Reference: US4808616A, “6-substituted androsta-1,4-diene-3,17-diones” (Farmitalia Carlo Erba S.r.l., priority 1985, dated 1989)

Legend:
rat ovarian aromatase = experiment: Inhibition of rat ovarian aromatase in vivo (PMSG-treated adult female rats, oral)
[1] = women; cited from earlier work
[2] = molecular target: T1, human placental aromatase (Homo sapiens, UniProt P11511); experiment: Inhibition of human placental aromatase in vitro; type: biochemical
T1 construct: isolated from the microsomal fraction of human placental tissue; from tissue; host or cells: human placenta, microsomal fraction
T1 sequence (P11511 1-503): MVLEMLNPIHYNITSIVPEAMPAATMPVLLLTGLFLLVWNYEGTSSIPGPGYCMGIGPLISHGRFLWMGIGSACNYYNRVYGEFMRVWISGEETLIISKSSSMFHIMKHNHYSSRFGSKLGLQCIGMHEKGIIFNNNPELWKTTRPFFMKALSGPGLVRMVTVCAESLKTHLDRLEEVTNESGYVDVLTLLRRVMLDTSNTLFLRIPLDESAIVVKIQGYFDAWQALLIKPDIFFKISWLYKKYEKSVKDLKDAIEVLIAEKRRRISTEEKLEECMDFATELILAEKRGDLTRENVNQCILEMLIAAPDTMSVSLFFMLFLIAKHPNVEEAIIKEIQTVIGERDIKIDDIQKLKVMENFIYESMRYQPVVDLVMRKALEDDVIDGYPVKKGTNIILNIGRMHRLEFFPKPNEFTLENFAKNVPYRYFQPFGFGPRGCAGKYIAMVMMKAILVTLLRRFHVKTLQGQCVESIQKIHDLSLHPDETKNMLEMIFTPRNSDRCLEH

[3] = 30 mg/kg p.o., rats, ovaries taken 24 hrs later

Compound | % Aromatase inhibition at 30 mg/kg p.o. (result in words) (rat ovarian aromatase; [3]) | effectiveness in vivo by oral route (in words) (rat ovarian aromatase; administered in vivo by oral route) | conjugation after oral administration [1] | % Aromatase inhibition at 30 mg/kg p.o. (rat ovarian aromatase; [3]) [%] | Relative potency [2]
C[C@]12CCC(=O)C(O)=C1CC[C@@H]1[C@@H]2CC[C@]2(C)C(=O)CC[C@@H]12 [4-hydroxy-androst-4-ene-3,17-dione] | inactive | ineffective | extensively conjugated after oral administration | – | –
C=C1C[C@@H]2[C@H](CC[C@]3(C)C(=O)CC[C@@H]23)[C@@]2(C)CCC(=O)C=C12 [6-methylenandrost-4-ene-3,17-dione, reference compound] | inactive | – | – | – | –
C[C@]12C=CC(=O)C=C1CC[C@@H]1[C@@H]2CC[C@]2(C)C(=O)CC[C@@H]12 [androsta-1,4-diene-3,17-dione] | – | – | – | 37 | –
C[C@]12C=CC(=O)C=C1CC[C@@H]1[C@@H]2CC[C@]2(C)OC(=O)CC[C@@H]12 [Δ^1 -testololactone, reference compound] | inactive | – | – | – | 0.005
